In assay [1] the test system is MM.1S (MM1S). As to the kind of experiment: CCK-8 tumor cell proliferation IC50, MM.1S. The note with it: MM.1S cells, compounds designed based on the IRAK4 inhibitors, read-out: Inhibitory activity (IC50, nM) on tumor cell proliferation, MM.1S. The procedure:
(§1) The tumor cells used herein were cultured in a cell culture medium listed in table A1 at 37° C. in an incubator with 5% CO2. Prior to experimentation, all cell lines used were correctly identified by STR profiling, and tested negative for mycoplasma contamination using a mycoplasma detection kit through routine screenings.
(§2) IC50 values of the compounds of the present disclosure (including the compounds in Table 1, and compounds of examples) were measured using the Meilun Cell Counting Kit-8 kit from Dalian Meilun Biotech Co., Ltd. Assay details are as follows: tumor cells were seeded in a 96-well plate at a density listed in Table A2. After 24 h, 100 μL of the inoculated cells were treated with 0.5 μL of the compounds of the present disclosure (including the compounds in Tables 1 and 2, and compounds of examples) at 10 different successively decreasing concentrations (starting at the highest concentration of 1 μM; 5-fold serial dilutions). After the cells were treated with the compounds of the present disclosure for a period of time, the cell viability detection reagent was added to the culture medium for cell viability assessment according to the instructions provided with the CCK-8 kit. […] The growth inhibition of the compounds of the present disclosure on cells was plotted by Prism Graphpad software, and the IC50 values of the compounds of the present disclosure were calculated therefrom.

Assay [2] deals with MGC-803 (MGC80-3, MGC803). Kind of assay: CCK-8 tumor cell proliferation IC50, MGC-803. Conditions: MGC803 cells, compounds designed based on the IRAK4 inhibitors, read-out: Inhibitory activity (IC50, nM) on tumor cell proliferation, MGC803. On the set-up: species or system human. The procedure:
as §1, §2

In assay [3] the test system is H1299. As to the kind of experiment: CCK-8 tumor cell proliferation IC50, H1299. On the set-up: species or system human. The note with it: compounds designed based on the IRAK4 inhibitors, read-out: Inhibitory activity (IC50, nM) on tumor cell proliferation, H1299. The procedure: as §1, §2
In assay [4] the test system is NCI-H1975 (H1975). As to the kind of experiment: CCK-8 tumor cell proliferation IC50, NCI-H1975. The note with it: Homo sapiens, Table B3, designed based on the EGFR inhibitors, 96 hours, read-out: Inhibitory activity (IC50, nM) on tumor cell proliferation: H1975. The procedure: as §1
as §2, with “dilutions).” for “dilutions). After the cells were treated with the compounds of the present disclosure for a period of time, the cell viability detection reagent was added to the culture medium for cell viability assessment according to the instructions provided with the CCK-8 kit.”

Assay [5] deals with T1, IKZF2 (Homo sapiens, UniProt Q96SW2+Q9UKS7).
T1 construct: endogenous in cells; host or cells: hPBMC
T1 sequence (Q9UKS7 whole entry): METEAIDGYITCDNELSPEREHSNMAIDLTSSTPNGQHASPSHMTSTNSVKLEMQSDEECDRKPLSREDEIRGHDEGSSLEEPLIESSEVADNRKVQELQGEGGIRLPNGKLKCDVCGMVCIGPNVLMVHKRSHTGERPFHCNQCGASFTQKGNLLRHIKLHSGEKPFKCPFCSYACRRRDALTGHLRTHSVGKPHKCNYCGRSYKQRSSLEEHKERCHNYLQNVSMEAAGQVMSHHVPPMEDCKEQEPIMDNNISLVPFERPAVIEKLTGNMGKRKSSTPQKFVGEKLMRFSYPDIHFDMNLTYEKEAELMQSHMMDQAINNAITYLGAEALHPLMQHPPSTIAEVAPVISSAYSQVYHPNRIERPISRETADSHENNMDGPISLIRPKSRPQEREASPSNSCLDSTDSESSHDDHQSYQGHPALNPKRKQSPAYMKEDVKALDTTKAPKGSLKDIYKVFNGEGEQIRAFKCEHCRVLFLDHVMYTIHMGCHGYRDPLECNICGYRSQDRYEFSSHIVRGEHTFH
T1 sequence (Q96SW2 whole entry): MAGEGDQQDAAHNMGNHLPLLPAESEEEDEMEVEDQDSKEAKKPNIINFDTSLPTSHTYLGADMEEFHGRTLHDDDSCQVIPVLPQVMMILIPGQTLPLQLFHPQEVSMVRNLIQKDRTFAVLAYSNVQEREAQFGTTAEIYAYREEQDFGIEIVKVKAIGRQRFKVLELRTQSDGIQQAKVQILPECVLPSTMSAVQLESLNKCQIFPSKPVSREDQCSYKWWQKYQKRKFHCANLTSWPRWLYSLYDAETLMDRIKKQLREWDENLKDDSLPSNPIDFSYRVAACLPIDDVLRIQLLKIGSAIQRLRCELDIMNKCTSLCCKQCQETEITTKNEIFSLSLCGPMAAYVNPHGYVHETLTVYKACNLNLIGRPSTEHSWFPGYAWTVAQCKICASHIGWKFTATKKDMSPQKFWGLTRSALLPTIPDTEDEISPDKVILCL
T1 sequence (Q16531 whole entry partner): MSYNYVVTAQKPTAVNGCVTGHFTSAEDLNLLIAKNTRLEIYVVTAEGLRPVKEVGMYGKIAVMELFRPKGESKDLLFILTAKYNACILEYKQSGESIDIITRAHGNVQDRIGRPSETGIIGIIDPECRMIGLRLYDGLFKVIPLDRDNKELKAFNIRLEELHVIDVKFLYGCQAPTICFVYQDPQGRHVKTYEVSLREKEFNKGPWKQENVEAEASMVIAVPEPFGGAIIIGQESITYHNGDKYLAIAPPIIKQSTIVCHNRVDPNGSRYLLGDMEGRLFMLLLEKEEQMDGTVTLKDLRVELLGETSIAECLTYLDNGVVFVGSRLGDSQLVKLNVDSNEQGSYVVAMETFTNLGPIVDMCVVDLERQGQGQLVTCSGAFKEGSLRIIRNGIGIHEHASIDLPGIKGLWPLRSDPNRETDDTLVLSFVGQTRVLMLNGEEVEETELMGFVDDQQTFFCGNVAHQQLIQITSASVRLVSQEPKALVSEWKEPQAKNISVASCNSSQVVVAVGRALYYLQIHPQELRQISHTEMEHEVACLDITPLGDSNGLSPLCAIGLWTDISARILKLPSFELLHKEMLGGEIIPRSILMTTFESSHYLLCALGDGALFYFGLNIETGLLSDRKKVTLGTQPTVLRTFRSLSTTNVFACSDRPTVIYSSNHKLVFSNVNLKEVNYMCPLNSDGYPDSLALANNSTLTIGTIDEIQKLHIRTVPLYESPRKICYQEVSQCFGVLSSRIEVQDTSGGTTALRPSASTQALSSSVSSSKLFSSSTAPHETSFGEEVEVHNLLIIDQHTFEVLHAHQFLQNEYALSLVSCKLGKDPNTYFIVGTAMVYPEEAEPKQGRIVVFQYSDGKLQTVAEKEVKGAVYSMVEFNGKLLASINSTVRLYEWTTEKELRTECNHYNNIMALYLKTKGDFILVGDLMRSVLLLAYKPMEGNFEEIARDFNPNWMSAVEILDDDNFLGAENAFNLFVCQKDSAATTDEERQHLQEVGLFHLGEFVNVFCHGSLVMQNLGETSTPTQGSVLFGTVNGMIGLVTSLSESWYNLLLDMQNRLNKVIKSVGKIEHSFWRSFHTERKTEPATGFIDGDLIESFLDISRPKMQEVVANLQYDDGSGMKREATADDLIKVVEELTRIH
As to the kind of experiment: Western blot degradation of IKZF2 in hPBMC. Format: cell-based. The essentials:
(§3)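 hPBMC, compound-treated; SDS-PAGE Western, NC membrane, 1 h RT block. DC50 = conc. at 50% of DMSO band grayscale (curve fit). % remaining = target/internal control band ratio, normalized.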
A general note: A western blot detects proteins with antibodies after separation by electrophoresis.

The target in assay [6] is T2, CK1a (Homo sapiens, UniProt P48729+Q96SW2).
T2 construct: endogenous in cells; host or cells: hPBMC
T2 sequence (P48729 whole entry): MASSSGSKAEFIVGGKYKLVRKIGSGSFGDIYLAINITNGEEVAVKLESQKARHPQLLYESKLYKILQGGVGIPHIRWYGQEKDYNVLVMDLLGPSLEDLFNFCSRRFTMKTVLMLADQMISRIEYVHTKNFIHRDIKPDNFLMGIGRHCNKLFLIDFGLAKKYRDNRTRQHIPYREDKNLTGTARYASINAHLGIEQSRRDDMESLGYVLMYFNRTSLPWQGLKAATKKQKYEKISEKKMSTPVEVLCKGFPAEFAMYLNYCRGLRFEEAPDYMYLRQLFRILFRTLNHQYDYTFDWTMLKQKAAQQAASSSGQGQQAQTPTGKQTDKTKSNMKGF
T2 sequence (Q96SW2 whole entry): as the sequence (Q96SW2 whole entry) above
T2 sequence (Q16531 whole entry partner): as the sequence (Q16531 whole entry partner) above
Kind of assay: Western blot degradation of CK1a in hPBMC. Format: cell-based. The method, boiled down:
as §3

Assay [7] has as its target T3, WEE1 (Homo sapiens, UniProt P30291+Q96SW2).
T3 construct: endogenous in cells; host or cells: hPBMC
Kind of assay: Western blot degradation of WEE1 in hPBMC. Format: cell-based. The essentials: as §3

Assay [8] has as its target T4, GSPT1 (Homo sapiens, UniProt P15170+Q96SW2).
T4 construct: endogenous in cells; host or cells: hPBMC
As to the kind of experiment: Western blot degradation of GSPT1 in hPBMC. Format: cell-based. The method, boiled down:
as §3

Assay [9] addresses T5, IKZF3 (Homo sapiens, UniProt Q96SW2+Q9UKT9).
T5 construct: endogenous in cells; host or cells: hPBMC
Kind of assay: Western blot degradation of IKZF3 in hPBMC. Format: cell-based. The method, boiled down:
as §3

Assay [10] deals with T6, IKZF1 (Homo sapiens, UniProt Q13422+Q96SW2).
T6 construct: endogenous in cells; host or cells: hPBMC
As to the kind of experiment: Western blot degradation of IKZF1 in hPBMC. Format: cell-based. The essentials:
as §3

Assay [11] concerns MM.1R. Kind of assay: CCK-8 tumor cell proliferation IC50, MM.1R. Conditions: Table B4, designed based on the CDK4/6 inhibitors, 72 hours, read-out: Inhibitory activity (IC50, nM) on tumor cell proliferation: MM.1R. On the procedure:
as §1
as §2, with “dilutions).” for “dilutions). After the cells were treated with the compounds of the present disclosure for a period of time, the cell viability detection reagent was added to the culture medium for cell viability assessment according to the instructions provided with the CCK-8 kit.”

For assay [12], the system named is Jurkat. Kind of assay: CCK-8 tumor cell proliferation IC50, Jurkat. The note with it: Homo sapiens, Jurkat cells, compounds designed based on the IRAK4 inhibitors, read-out: Inhibitory activity (IC50, nM) on tumor cell proliferation, Jurkat. On the procedure:
as §1
as §2, with “dilutions).” for “dilutions). After the cells were treated with the compounds of the present disclosure for a period of time, the cell viability detection reagent was added to the culture medium for cell viability assessment according to the instructions provided with the CCK-8 kit.”

In assay [13] the test system is SR. Kind of assay: CCK-8 tumor cell proliferation IC50, SR. Conditions: Homo sapiens, SR cells, compounds designed based on the IRAK4 inhibitors, read-out: Inhibitory activity (IC50, nM) on tumor cell proliferation, SR. On the procedure: as §1
as §2, with “dilutions).” for “dilutions). After the cells were treated with the compounds of the present disclosure for a period of time, the cell viability detection reagent was added to the culture medium for cell viability assessment according to the instructions provided with the CCK-8 kit.”

In assay [14] the test system is LNcap. Kind of assay: CCK-8 tumor cell proliferation IC50, LNcap. Conditions: Homo sapiens, Lncap cells, compounds designed based on the IRAK4 inhibitors, read-out: Inhibitory activity (IC50, nM) on tumor cell proliferation, Lncap. On the procedure:
as §1
as §2, with “dilutions).” for “dilutions). After the cells were treated with the compounds of the present disclosure for a period of time, the cell viability detection reagent was added to the culture medium for cell viability assessment according to the instructions provided with the CCK-8 kit.”

Assay [15] deals with MV-4-11. Kind of assay: CCK-8 tumor cell proliferation IC50, MV-4-11. The note with it: Homo sapiens, MV4-11, MV-4-11 cells, compounds designed based on the IRAK4 inhibitors, read-out: Inhibitory activity (IC50, nM) on tumor cell proliferation, MV-4-11. The procedure: as §1
as §2, with “dilutions).” for “dilutions). After the cells were treated with the compounds of the present disclosure for a period of time, the cell viability detection reagent was added to the culture medium for cell viability assessment according to the instructions provided with the CCK-8 kit.”

In assay [16] the test system is CCRF-CEM. As to the kind of experiment: CCK-8 tumor cell proliferation IC50, CCRF-CEM. Conditions: Homo sapiens, CCRF-CEM cells, compounds designed based on the IRAK4 inhibitors, read-out: Inhibitory activity (IC50, nM) on tumor cell proliferation, CCRF-CEM. The procedure: as §1
as §2, with “dilutions).” for “dilutions). After the cells were treated with the compounds of the present disclosure for a period of time, the cell viability detection reagent was added to the culture medium for cell viability assessment according to the instructions provided with the CCK-8 kit.”

Read-outs that look alike come from different tables or passages of the source.

T5 sequence (Q9UKT9 whole entry): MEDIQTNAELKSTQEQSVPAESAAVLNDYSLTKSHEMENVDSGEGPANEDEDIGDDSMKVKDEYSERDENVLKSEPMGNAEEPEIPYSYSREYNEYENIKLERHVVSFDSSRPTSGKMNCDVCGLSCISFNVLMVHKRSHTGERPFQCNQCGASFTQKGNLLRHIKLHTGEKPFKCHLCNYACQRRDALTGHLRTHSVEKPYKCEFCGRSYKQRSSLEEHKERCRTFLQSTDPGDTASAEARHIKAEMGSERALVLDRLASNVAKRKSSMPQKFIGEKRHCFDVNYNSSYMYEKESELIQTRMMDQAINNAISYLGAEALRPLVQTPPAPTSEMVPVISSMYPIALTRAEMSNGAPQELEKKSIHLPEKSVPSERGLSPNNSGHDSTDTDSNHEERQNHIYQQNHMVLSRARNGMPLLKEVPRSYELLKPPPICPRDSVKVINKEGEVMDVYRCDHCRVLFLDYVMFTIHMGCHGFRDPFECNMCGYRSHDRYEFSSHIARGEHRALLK
T5 sequence (Q96SW2 whole entry): as the sequence (Q96SW2 whole entry) above
T5 sequence (Q16531 whole entry partner): as the sequence (Q16531 whole entry partner) above
T3 sequence (P30291 whole entry): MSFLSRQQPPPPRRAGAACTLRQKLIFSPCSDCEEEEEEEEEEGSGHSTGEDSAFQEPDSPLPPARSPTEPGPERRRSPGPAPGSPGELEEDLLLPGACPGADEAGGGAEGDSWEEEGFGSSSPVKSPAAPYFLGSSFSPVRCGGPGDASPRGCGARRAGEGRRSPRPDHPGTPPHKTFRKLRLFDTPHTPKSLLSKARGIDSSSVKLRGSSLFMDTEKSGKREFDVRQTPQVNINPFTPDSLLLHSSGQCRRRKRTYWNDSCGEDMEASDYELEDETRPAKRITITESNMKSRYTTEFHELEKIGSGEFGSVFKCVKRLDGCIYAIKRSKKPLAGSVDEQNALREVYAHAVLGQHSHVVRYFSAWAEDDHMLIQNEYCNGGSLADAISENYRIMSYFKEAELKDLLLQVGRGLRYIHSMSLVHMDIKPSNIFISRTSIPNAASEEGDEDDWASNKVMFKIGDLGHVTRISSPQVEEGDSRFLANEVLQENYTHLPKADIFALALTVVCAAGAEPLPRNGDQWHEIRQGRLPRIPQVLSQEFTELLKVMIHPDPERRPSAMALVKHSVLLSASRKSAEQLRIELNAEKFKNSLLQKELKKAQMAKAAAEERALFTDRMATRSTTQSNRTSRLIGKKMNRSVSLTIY
T3 sequence (Q96SW2 whole entry): as the sequence (Q96SW2 whole entry) above
T3 sequence (Q16531 whole entry partner): as the sequence (Q16531 whole entry partner) above
T4 sequence (P15170 whole entry): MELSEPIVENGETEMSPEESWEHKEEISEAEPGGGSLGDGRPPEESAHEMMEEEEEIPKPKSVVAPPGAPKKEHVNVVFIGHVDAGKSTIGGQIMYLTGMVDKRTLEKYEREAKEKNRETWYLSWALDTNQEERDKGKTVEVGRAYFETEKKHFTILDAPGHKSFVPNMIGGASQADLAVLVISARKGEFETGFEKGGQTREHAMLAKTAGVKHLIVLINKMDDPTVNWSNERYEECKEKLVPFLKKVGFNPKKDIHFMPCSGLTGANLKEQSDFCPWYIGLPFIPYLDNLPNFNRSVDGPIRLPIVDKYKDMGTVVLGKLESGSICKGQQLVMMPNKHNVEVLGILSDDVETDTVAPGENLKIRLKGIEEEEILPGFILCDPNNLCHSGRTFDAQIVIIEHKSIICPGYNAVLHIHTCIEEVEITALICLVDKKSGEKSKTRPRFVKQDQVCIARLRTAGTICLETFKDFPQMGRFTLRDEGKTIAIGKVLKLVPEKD
T4 sequence (Q96SW2 whole entry): as the sequence (Q96SW2 whole entry) above
T4 sequence (Q16531 whole entry partner): as the sequence (Q16531 whole entry partner) above

For `O=C1CCC(Nc2cccc(CN3CCN(Cc4ccc5c(c4)nc(NC(=O)c4cccc(C(F)(F)F)c4)n5C4CCC(CO)CC4)CC3)c2)C(=O)N1` (centres unmarked) [GT-04976, N-(5-((4-(3-((2,6-dioxopiperidin-3-yl)amino)benzyl)piperazin-1-yl)methyl)-1-((1s,4s)-4-(hydroxymethyl)cyclohexyl)-1H-benzo[d]imidazol-2-yl)-3-(trifluoromethyl)benzamide], in assay [1], the IC50 lay in the range of 100 to 500 nM.

Turning to `O=C1CCC(c2ccc(CN3CCN(c4ccc5c(c4)nc(NC(=O)c4cccc(C(F)(F)F)c4)n5C4CCC(CO)CC4)CC3)cc2)C(=O)N1` (centres unmarked) [GT-04981, N-(5-(4-(4-(2,6-dioxopiperidin-3-yl)benzyl)piperazin-1-yl)-1-((1s,4s)-4-(hydroxymethyl)cyclohexyl)-1H-benzo[d]imidazol-2-yl)-3-(trifluoromethyl)benzamide], the IC50 in [1] lay within 100 to 500 nM; in assay [2], 500 to 1000 nM; in [3] (H1299 cells), 500 to 1000 nM.

On to `O=C1CCN(c2ccc(CN3CCN(c4ccc5c(c4)nc(NC(=O)c4cccc(C(F)(F)F)c4)n5[C@H]4CC[C@@H](CO)CC4)CC3)cc2)C(=O)N1` [GT-04982, N-(5-(4-(4-(2,4-dioxotetrahydropyrimidin-1(2H)-yl)benzyl)piperazin-1-yl)-1-((1s,4s)-4-(hydroxymethyl)cyclohexyl)-1H-benzo[d]imidazol-2-yl)-3-(trifluoromethyl)benzamide], for which the IC50 in [1] was 50 to 100 nM; in assay [2], 100 to 500 nM; in assay [3] (H1299 cells), 100 to 500 nM.

In the case of `O=C1CCN(c2ccc(CN3CCN(c4ccc5c(c4)nc(NC(=O)c4cccc(C(F)(F)F)c4)n5[C@H]4CC[C@@H](CO)CC4)CC3)nc2)C(=O)N1` [GT-04986, N-(5-(4-((5-(2,4-dioxotetrahydropyrimidin-1(2H)-yl)pyridin-2-yl)methyl)piperazin-1-yl)-1-((1s,4s)-4-(hydroxymethyl)cyclohexyl)-1H-benzo[d]imidazol-2-yl)-3-(trifluoromethyl)benzamide], the IC50 in assay [1], in assay [2] and in assay [3] (H1299 cells) was 100 to 500 nM each time.

For `O=C1CCC(Nc2cccc(CN3CCC(N4CCN(c5ccc6c(c5)nc(NC(=O)c5cccc(C(F)(F)F)c5)n6[C@H]5CC[C@@H](CO)CC5)CC4)CC3)c2)C(=O)N1` (some centres unmarked) [GT-05023, N-(5-(4-(1-(3-((2,6-dioxopiperidin-3-yl)amino)benzyl)piperidin-4-yl)piperazin-1-yl)-1-((1s,4s)-4-(hydroxymethyl)cyclohexyl)-1H-benzo[d]imidazol-2-yl)-3-(trifluoromethyl)benzamide], the IC50 in [1] is 500 to 1000 nM.

Turning to `O=C1CCN(c2ccc(CN3C4CCC3CN(c3ccc(-c5cc(F)c6c(c5)C(=O)N(C(C(=O)Nc5nccs5)c5ncn7c5CCC7)C6)cc3)C4)cn2)C(=O)N1` (centres unmarked) [GT-06256, 2-(6,7-dihydro-5H-pyrrolo[1,2-c]imidazol-1-yl)-2-(6-(4-(8-((6-(2,4-dioxotetrahydropyrimidin-1(2H)-yl)pyridin-3-yl)methyl)-3,8-diazabicyclo[3.2.1]octan-3-yl)phenyl)-4-fluoro-1-oxoisoindolin-2-yl)-N-(thiazol-2-yl)acetamide], the IC50 in assay [4] lay within 1 to 10 nM.

Turning to `O=C1CCC(Nc2cccc(CN3C4CCC3CN(c3ccc(-c5cc(F)c6c(c5)C(=O)N(C(C(=O)Nc5nccs5)c5ncn7c5CCC7)C6)cc3)C4)c2)C(=O)N1` (centres unmarked) [GT-06257, 2-(6,7-dihydro-5H-pyrrolo[1,2-c]imidazol-1-yl)-2-(6-(4-(8-(3-((2,6-dioxopiperidin-3-yl)amino)benzyl)-3,8-diazabicyclo[3.2.1]octan-3-yl)phenyl)-4-fluoro-1-oxoisoindolin-2-yl)-N-(thiazol-2-yl)acetamide], in [4], the IC50 fell in the range of 1 to 10 nM.

Regarding `O=C1CCC(Nc2ncc(CO)cn2)C(=O)N1` (centres unmarked) [GT-07809, 3-((5-(hydroxymethyl)pyrimidin-2-yl)amino)piperidine-2,6-dione], the “Degradation of substrate protein IKZF2 (substrate protein remaining %)” value in [5] is listed as “A (A is defined as 0% ≤ substrate protein remaining % ≤ 80%)”. For the same compound, the “Degradation of substrate protein CK1a (substrate protein remaining %)” value in assay [6] is reported as “B (B is defined as substrate protein remaining % > 80%)”. Further, the “Degradation of substrate protein WEE1 (substrate protein remaining %)” value in assay [7] is given as “A (A is defined as 0% ≤ substrate protein remaining % ≤ 80%)”. The “Degradation of substrate protein GSPT1 (substrate protein remaining %)” value in [8] is “B (B is defined as substrate protein remaining % > 80%)”. For the same compound, the “Degradation of substrate protein IKZF3 (substrate protein remaining %)” value in assay [9] is reported as “A (A is defined as 0% ≤ substrate protein remaining % ≤ 80%)”. Also, in [10], the “Degradation of substrate protein IKZF1 (substrate protein remaining %)” value was “A (A is defined as 0% ≤ substrate protein remaining % ≤ 80%)”.

With `CC[C@@H]1[C@H](F)C(=O)N[C@@H]1COc1nccc2cc(C(N)=O)c(OC)cc12` [PF06650833, reference compound], the IC50 in assay [1] was over 10000 nM; in assay [2], 5000 to 10000 nM; in assay [3] (H1299 cells) it was 5000 to 10000 nM.

For the compound `CCN1CCN(Cc2ccc(Nc3ncc(F)c(-c4cc(F)c5nc(C)n(C(C)C)c5c4)n3)nc2)CC1` [abemaciclib], in assay [11], the IC50 lay in the range of 1000 to 5000 nM.

Take `Cc1cc(-c2nc(C(=O)Nc3cc4oc(N5CCOCC5)nc4nc3N3CC[C@@H](O)C3)co2)ccn1` [emavusertib]: the IC50 in [12] was over 10000 nM; in assay [13], over 10000 nM; in [14], over 10000 nM; in [15], 50 to 100 nM; in assay [16], over 10000 nM; in [3] (Homo sapiens, NCI-H1299, H1299 cells), over 10000 nM.

Values taken from patent US20260274829A1, “NEW E3 UBIQUITIN LIGASE LIGAND, PROTEIN DEGRADATION AGENT AND USE THEREOF” (GLUETACS THERAPEUTICS (SHANGHAI) CO., LTD., priority 2023, published 2026).
